This is an account of results in patent US9597327B2, “Synthesis of (R)-N-methylnaltrexone” (Progenics Pharmaceuticals, Inc., priority 2005, dated 2017).

Where a name gives a salt, the structure may show the parent alone.

For assay [1], the system named is chronic opioid user. Particulars: intravenously; subjects receiving opioids chronically; cited from earlier work.
Assay [2] in a line: opioid agonist / antagonist character of the MNTX stereoisomers (stated, no method given). Particulars: statement in words, no assay described.

In the case of `C[N+]1(CC2CC2)CC[C@]23c4c5ccc(O)c4O[C@H]2C(=O)CC[C@@]3(O)[C@H]1C5` (stereo partly drawn) [MNTX, Methylnaltrexone], the “dose required to induce immediate laxation” value in assay [1] is “about 0.15 mg/kg”.

With `C[N+]1(CC2CC2)CC[C@]23c4c5ccc(O)c4O[C@H]2C(=O)CC[C@@]3(O)[C@H]1C5` (stereo partly drawn) [R-MNTX, morphinanium, 17R, 17-(cyclopropylmethyl)-4,5-epoxy-3,14-dihydroxy-17-methyl-6-oxo-, salt, (5α)-(9Cl)], the “opioid activity (agonist or antagonist)” value in assay [2] is reported as “opioid antagonist”.

Take `C[N@@+]1(CC2CC2)CC[C@]23c4c5ccc(O)c4OC2C(=O)CCC3(O)C1C5` (stereo partly drawn) [S-MNTX]: the “opioid activity (agonist or antagonist)” value in assay [2] was “opioid agonist”.
